Reference: patent US12540129B2, “KIF18A inhibitors” (AMGEN INC., priority 2019, dated 2026)

molecular target: T1, Recombinant human KIF18A (1-467 His-tagged) protein (Homo sapiens, UniProt Q8NI77); test: KIF18A Enzyme Assay: microtubule-stimulated ATPase activity (ADP-Glo); type: biochemical; conditions: 30 nM KIF18A, 75 μM ATP
T1 construct: Recombinant human KIF18A (1-467 His-tagged) protein; His; made in house
Excerpt: KIF18A Enzyme Assay: Microtubule-stimulated ATPase activity assay is used to measure KIF18A enzyme activity after treatment with compound. Compounds were 2-fold serially diluted in DMSO (Sigma Inc) over 22-point concentration range. Recombinant human KIF18A (1-467 His-tagged) protein was expressed using a baculovirus system and purified by affinity chromatography by Amgen Inc. Concentrations of KIF18A protein, microtubules (MT), and ATP in the reaction were optimized for standardized homogenous enzyme assay using ADP-Glorm Kinase/ATPase Assay Kit (Promega Inc). The assay measures ADP formed from the ATPase reaction. […] Read luminescence using EnVision microplate reader with ultra-luminescence module (Perkin Elmer Inc). Concentration-response curve-fitting and IC50 determination was performed using Genedata Screener Software (Standard 15.0.1, Genedata Inc) with a four-parameter logistic regression fit model.
Table A provides data for compounds exemplified in the present application and priority document thereof, as representative compounds of the present invention, as follows: chemical name (as named by either ACD software or ChemDraw (Professional 15.0)) and biological data (IC50 in μM). Ex. # refers to Example No.

T1 sequence (Q8NI77 1-467): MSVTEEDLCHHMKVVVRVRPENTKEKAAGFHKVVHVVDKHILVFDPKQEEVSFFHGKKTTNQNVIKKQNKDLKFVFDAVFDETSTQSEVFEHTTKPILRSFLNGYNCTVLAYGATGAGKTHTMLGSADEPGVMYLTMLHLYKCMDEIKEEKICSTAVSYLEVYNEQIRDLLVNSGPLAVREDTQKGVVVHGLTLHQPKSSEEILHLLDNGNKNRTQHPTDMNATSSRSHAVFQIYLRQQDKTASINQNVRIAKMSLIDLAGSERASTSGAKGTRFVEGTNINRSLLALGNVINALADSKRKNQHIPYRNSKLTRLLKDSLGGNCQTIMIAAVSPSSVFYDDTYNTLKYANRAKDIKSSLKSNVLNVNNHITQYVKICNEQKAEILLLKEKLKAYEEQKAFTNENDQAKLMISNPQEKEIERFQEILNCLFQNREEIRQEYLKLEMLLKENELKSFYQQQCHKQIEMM
T1 sequence (P02550 whole entry partner): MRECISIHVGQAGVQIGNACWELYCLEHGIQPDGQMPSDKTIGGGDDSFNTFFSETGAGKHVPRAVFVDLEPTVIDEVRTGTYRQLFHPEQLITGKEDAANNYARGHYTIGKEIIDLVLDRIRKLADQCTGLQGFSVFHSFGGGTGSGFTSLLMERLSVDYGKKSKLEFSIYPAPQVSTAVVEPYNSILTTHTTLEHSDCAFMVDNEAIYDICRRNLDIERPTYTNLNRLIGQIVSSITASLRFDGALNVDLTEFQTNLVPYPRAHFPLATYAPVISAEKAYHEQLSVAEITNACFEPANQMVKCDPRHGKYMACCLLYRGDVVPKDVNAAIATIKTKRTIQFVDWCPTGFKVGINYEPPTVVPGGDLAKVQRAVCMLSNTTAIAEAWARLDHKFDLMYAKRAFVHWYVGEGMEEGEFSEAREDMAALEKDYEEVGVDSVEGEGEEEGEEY
T1 sequence (P02554 whole entry partner): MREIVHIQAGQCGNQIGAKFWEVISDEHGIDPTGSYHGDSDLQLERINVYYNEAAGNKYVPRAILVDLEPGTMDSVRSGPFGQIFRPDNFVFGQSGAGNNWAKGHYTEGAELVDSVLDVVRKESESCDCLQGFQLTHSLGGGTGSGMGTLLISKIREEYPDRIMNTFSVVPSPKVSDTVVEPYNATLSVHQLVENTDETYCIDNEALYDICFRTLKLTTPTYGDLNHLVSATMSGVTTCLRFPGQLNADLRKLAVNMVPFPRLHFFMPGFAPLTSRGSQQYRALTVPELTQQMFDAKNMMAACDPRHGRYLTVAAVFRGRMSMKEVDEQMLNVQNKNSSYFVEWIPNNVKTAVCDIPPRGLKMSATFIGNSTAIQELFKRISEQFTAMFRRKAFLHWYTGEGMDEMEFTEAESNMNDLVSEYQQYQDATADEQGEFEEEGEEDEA

**Q.** `CC1(NS(=O)(=O)c2cccc(NC(=O)c3ccc(NC4(CO)CC4)nc3N3CCC4(CC3)CC4)c2)CCC1` [Example 105-12, 6-((1-(hydroxymethyl)cyclopropyl)amino)-N-(3-(N-(1-methylcyclobutyl)sulfamoyl)phenyl)-2-(6-azaspiro[2.5]octan-6-yl)nicotinamide] was tested. Which IC50 did it give?
**A.** The IC50 was 105 nM.

**Q.** With `O=C(Nc1cccc(S(=O)(=O)N2CC(F)(F)C2)c1)c1cccnc1N1CCC2(CC1)CC2` [Example 101-5, N-(3-((3,3-difluoroazetidin-1-yl)sulfonyl)phenyl)-2-(6-azaspiro[2.5]octan-6-yl)nicotinamide] as the compound, how does the IC50 read?
**A.** The IC50 was 401 nM.

**Q.** With `CC(C)(C)NS(=O)(=O)c1cccc(NC(=O)c2ccc(NCc3ccccc3)nc2N2CCC3(CC2)CC3)c1` [Example 102-31, 6-(benzylamino)-N-(3-(N-(tert-butyl)sulfamoyl)phenyl)-2-(6-azaspiro[2.5]octan-6-yl)nicotinamide] as the compound, how does the IC50 read?
**A.** Its IC50 is 317 nM.

**Q.** With `CC(C)(CO)Nc1ccc(C(=O)Nc2cccc(N3CCS(=O)(=O)CC3)c2)c(N2CCC3(CC2)CC3)n1` [Example 105-28, N-(3-(1,1-dioxidothiomorpholino)phenyl)-6-((1-hydroxy-2-methylpropan-2-yl)amino)-2-(6-azaspiro[2.5]octan-6-yl)nicotinamide] as the compound, how does the IC50 read?
**A.** Its IC50 is 162 nM.

**Q.** Which IC50 does the source give for `Cc1ccc(NC(=O)c2cccnc2N2CCC3(CC2)CC3)cc1S(=O)(=O)NC1CC1` [Example 100-13, N-(3-(N-cyclopropylsulfamoyl)-4-methylphenyl)-2-(6-azaspiro[2.5]octan-6-yl)nicotinamide] here?
**A.** The IC50 was 712 nM.

**Q.** For `CC(C)(CO)Nc1ccc(C(=O)Nc2cccc(N3CCCC3)c2)c(N2CCC3(CC2)CC3)n1` [Example 105-26, 6-((1-hydroxy-2-methylpropan-2-yl)amino)-N-(3-(pyrrolidin-1-yl)phenyl)-2-(6-azaspiro[2.5]octan-6-yl)nicotinamide], which IC50 is on record?
**A.** The IC50 was 234 nM.

**Q.** For `Cc1ccc(NC(=O)c2ccc(NC(C)(C)CO)nc2N2CCC3(CC2)CC3)cc1S(=O)(=O)C1CCCC1` [Example 105-8, N-(3-(cyclopentylsulfonyl)-4-methylphenyl)-6-((1-hydroxy-2-methylpropan-2-yl)amino)-2-(6-azaspiro[2.5]octan-6-yl)nicotinamide], which IC50 is on record?
**A.** Its IC50 is 55 nM.

**Q.** Which IC50 does the source give for `O=C(Nc1cccc(S(=O)(=O)N2CCCCC2)c1)c1cccnc1N1CCC2(CC1)CC2` [Example 100-1, N-(3-(piperidin-1-ylsulfonyl)phenyl)-2-(6-azaspiro[2.5]octan-6-yl)nicotinamide] here?
**A.** The IC50 was 342 nM.

**Q.** How did the IC50 turn out when `CC(C)(C)NS(=O)(=O)c1cccc(NC(=O)c2ccc(N[C@@H]3CCOC[C@H]3O)nc2N2CCC3(CC2)CC3)c1` [Example 102-24, N-(3-(N-(tert-butyl)sulfamoyl)phenyl)-6-(((3S,4R)-3-hydroxytetrahydro-2H-pyran-4-yl)amino)-2-(6-azaspiro[2.5]octan-6-yl)nicotinamide] was run?
**A.** The IC50 was 259 nM.

**Q.** `Cc1ccc(NC(=O)c2ccc(NC(C)(C)CO)nc2N2CCC3(CC2)CC3)cc1-c1nccs1` [Example 111-4, 6-((1-hydroxy-2-methylpropan-2-yl)amino)-N-(4-methyl-3-(thiazol-2-yl)phenyl)-2-(6-azaspiro[2.5]octan-6-yl)nicotinamide] was tested. Which IC50 did it give?
**A.** The IC50 was 349 nM.

**Q.** With `C[C@@H]1CN(c2cc(NC(=O)c3ccc(NC(C)(C)CO)nc3N3CCC4(CC3)CC4)ccc2F)CCO1` [Example 105-31, (R)-N-(4-fluoro-3-(2-methylmorpholino)phenyl)-6-((1-hydroxy-2-methylpropan-2-yl)amino)-2-(6-azaspiro[2.5]octan-6-yl)nicotinamide] as the compound, how does the IC50 read?
**A.** Its IC50 is 199 nM.

**Q.** Which IC50 does the source give for `O=C(Nc1cccc(S(=O)(=O)N2CCC(F)CC2)c1)c1cccnc1N1CCC2(CC1)CC2` [Example 100-8, N-(3-((4-fluoropiperidin-1-yl)sulfonyl)phenyl)-2-(6-azaspiro[2.5]octan-6-yl)nicotinamide] here?
**A.** The IC50 was 259 nM.

**Q.** For `CC(C)(C)NS(=O)(=O)c1cccc(NC(=O)c2ccc(NC(C)(C)CCO)nc2N2CCC3(CC2)CC3)c1` [Example 103-28, N-(3-(N-(tert-butyl)sulfamoyl)phenyl)-6-((4-hydroxy-2-methylbutan-2-yl)amino)-2-(6-azaspiro[2.5]octan-6-yl)nicotinamide], which IC50 is on record?
**A.** The IC50 was 80 nM.
